Patent publication US20210268004A1, “COMPOSITION CONTAINING BECLOMETHASONE FOR THE PREVENTION AND THE TREATMENT OF BACTERIAL PROSTATITIS AND VAGINITIS” (SOFAR S.P.A., priority 2018, published 2021)
Read-outs that look alike come from different tables or passages of the source.

Assays:
[1] = rectal treatment; cited from earlier work
[2] = tested on: colorectal mucosa (epithelial tissue of the human colon reconstructed in 3D); conditions: for recovery %: human
Procedure: The trial was conducted according to the OCSE TG 428-EU approved method used for percutaneous penetration.
Like in the first trial, the test was conducted at 37° C. and relative humidity >90%.
Like in the first phase, the test was conducted at 37° C. and relative humidity >90%.

| recovery Total [2] | recovery % ([2]; 24 h, 5 mg/mL) [%] | recovery % ([2]; 48 h, 200 mg/mL) [%] | SMILES | adverse effects [1] |
| --- | --- | --- | --- | --- |
|  |  |  | CCC(=O)OCC(=O)[C@@]1(OC(=O)CC)[C@@H](C)C[C@H]2[C@@H]3CCC4=CC(=O)C=C[C@]4(C)[C@@]3(Cl)[C@@H](O)C[C@@]21C [BDP, beclomethasone dipropionate] | almost without the adverse effects typical of steroids |
| 133.53 | 89 |  | CCC(=O)OCC(=O)[C@@]1(OC(=O)CC)[C@@H](C)C[C@H]2[C@@H]3CCC4=CC(=O)C=C[C@]4(C)[C@@]3(Cl)[C@@H](O)C[C@@]21C [BDP B, beclomethasone dipropionate] |  |
| 112.53 | 75 |  | CCC(=O)OCC(=O)[C@@]1(OC(=O)CC)[C@@H](C)C[C@H]2[C@@H]3CCC4=CC(=O)C=C[C@]4(C)[C@@]3(Cl)[C@@H](O)C[C@@]21C [BDP C, beclomethasone dipropionate] |  |
| 1339.30 |  | 22 | CCC(=O)OCC(=O)[C@@]1(OC(=O)CC)[C@@H](C)C[C@H]2[C@@H]3CCC4=CC(=O)C=C[C@]4(C)[C@@]3(Cl)[C@@H](O)C[C@@]21C [BDP D, beclomethasone dipropionate] |  |
| 149.81 | 200 |  | CCC(=O)OCC(=O)[C@@]1(OC(=O)CC)[C@@H](C)C[C@H]2[C@@H]3CCC4=CC(=O)C=C[C@]4(C)[C@@]3(Cl)[C@@H](O)C[C@@]21C [BDP A, beclomethasone dipropionate] |  |
